Reference: patent US20140093489A1, “NUTRITIONAL SUPPLEMENTS FOR EYE HEALTH AND RELATED METHODS” (priority 2012, published 2014)
Like-named read-outs stand apart in the source and are kept apart here.

Tests used:
[1] = Coenzyme Q supplementation effect on serum vitamin C; format: in vivo
Description: FIG. 1. Coenzyme Q supplementation effect on serum vitamin C (μg/ml). Subjects (N=12) were given coenzyme Q for 2 weeks with blood taken pre and post intervention. Values are means±SD.
Coenzyme Q has antioxidant properties. This molecule is found in the diet and is made by the body. Body production declines with age. Absorption of orally ingested coenzyme Q can be low, though certain forms work better than others.

[2] = system: plasma extracellular superoxide dismutase; conditions: rats fed the copper at adequate level for 6 weeks, unpaired t-test P<0.01
Description: FIG. 4. Comparison of adequate copper intake as sulfate or glycinate for effects on plasma extracellular superoxide dismutase activities in rats. Rats were fed the copper for 6 weeks. […] Values are means±SD in activity units/ml.
Copper is another important cofactor for metalloenzymes, and is a second necessary cofactor for superoxide dismutase.

[3] = one dose of zinc, blood samples at 0-4 hours, n=12, ANOVA+Tukey p<0.05
Method: FIG. 2. Relative zinc absorption from three different forms of zinc. Subjects (n=12) were given one dose of zinc with blood samples taken at 0, 1, 2, 3, and 4 hours. Erythrocyte (red blood cell) zinc was analyzed for each time point with area under the curve used as a measure of relative absorption. The order of the different forms of zinc was randomly determined for each subject. A washout of at least 2 weeks occurred between testings of the different forms of zinc. Values are means±SD.
Zinc is important in maintaining the health of an eye's retina and is an essential part of more than 100 enzymes involved in digestion, metabolism, reproduction, and wound healing. […] (FIG. 3).

[4] = 60 mg/day zinc for 6 weeks
Method: Plasma zinc (μg/ml) response to zinc supplementation as gluconate (GLUC) or glycinate chelate (CHE). Young adult females were given 60 mg/day zinc for 6 weeks.

COC1=C(OC)C(=O)C(C/C=C(\C)CC/C=C(\C)CC/C=C(\C)CC/C=C(\C)CC/C=C(\C)CC/C=C(\C)CC/C=C(\C)CC/C=C(\C)CC/C=C(\C)CCC=C(C)C)=C(C)C1=O [Coenzyme Q]
serum vitamin C (μg/ml), post-values vs pre-values ([1]; coenzyme Q for 2 weeks, N=12, paired t-test P<0.001): significantly different from pre-values | plasma concentrations of active vitamin C ([1]; well-absorbed form of coenzyme Q, FIG. 1): greatly increase plasma concentrations of active vitamin C

NCC(=O)[O-].NCC(=O)[O-].[Cu+2] [copper glycinate]
plasma extracellular superoxide dismutase activities (activity units/ml) [2]: higher activities of a plasma copper enzyme than copper sulfate | plasma extracellular superoxide dismutase activities (activity units/ml) ([2]; listed as Glycinate): significantly different from sulfate values

NCC(=O)[O-].NCC(=O)[O-].[Zn+2] [zinc glycinate]
relative zinc absorption (erythrocyte zinc area under the curve) [3]: better absorbed than zinc oxide | relative zinc absorption (erythrocyte zinc area under the curve) ([3]; listed as Zinc chelate): differed from the other two groups | plasma zinc (μg/ml), post treatment vs pre-treatment [4]: significantly different from pre-treatment

zinc gluconate [reference compound]
plasma zinc (μg/ml), post treatment vs pre-treatment [4]: statistically significant decrease
